Experimental data: the supplement of paper PMC10307832

Key:
Assay in all cases: relative viability (nuclei count vs DMSO), 5 days (fraction); higher = more cells survive
Veliparib + Palbociclib = compound: C[C@]1(c2nc3c(C(N)=O)cccc3[nH]2)CCCN1 [Veliparib] + CC(=O)c1c(C)c2cnc(Nc3ccc(N4CCNCC4)cn3)nc2n(C2CCCC2)c1=O [Palbociclib] (partner 0.5 µM)
Outline: (§1)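 Lung cancer cell lines in 1536-well plates got either a single drug or a fixed anchor-drug dose together with five library-drug doses (not always all listed) in √10 steps, by pin tool, on the day after seeding. Nuclei were counted after 5 days, and relative viability is the treated-to-vehicle ratio of nuclei counts. Values are medians of duplicate plates.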

Veliparib + Tozasertib = compound: C[C@]1(c2nc3c(C(N)=O)cccc3[nH]2)CCCN1 [Veliparib] + Cc1cc(Nc2cc(N3CCN(C)CC3)nc(Sc3ccc(NC(=O)C4CC4)cc3)n2)n[nH]1 [Tozasertib] (partner 0.1 µM)
Outline: as §1

Veliparib + Alpelisib = compound: C[C@]1(c2nc3c(C(N)=O)cccc3[nH]2)CCCN1 [Veliparib] + Cc1nc(NC(=O)N2CCC[C@H]2C(N)=O)sc1-c1ccnc(C(C)(C)C(F)(F)F)c1 [Alpelisib] (partner 2 µM)
Outline: as §1

Veliparib + Phenformin = compound: C[C@]1(c2nc3c(C(N)=O)cccc3[nH]2)CCCN1 [Veliparib] + N=C(N)NC(=N)NCCc1ccccc1 [Phenformin] (partner 250 µM)
Outline: as §1

| Cell Line | relative viability (Veliparib + Palbociclib; first compound 0.02 µM) | relative viability (Veliparib + Palbociclib; first compound 0.06325 µM) | relative viability (Veliparib + Palbociclib; first compound 0.2 µM) | relative viability (Veliparib + Palbociclib; first compound 0.6325 µM) | relative viability (Veliparib + Palbociclib; first compound 2 µM) | relative viability (Veliparib + Tozasertib; first compound 0.02 µM) | relative viability (Veliparib + Tozasertib; first compound 0.06325 µM) | relative viability (Veliparib + Tozasertib; first compound 0.2 µM) | relative viability (Veliparib + Tozasertib; first compound 0.6325 µM) | relative viability (Veliparib + Tozasertib; first compound 2 µM) | relative viability (Veliparib + Alpelisib; first compound 0.02 µM) | relative viability (Veliparib + Alpelisib; first compound 0.06325 µM) | relative viability (Veliparib + Alpelisib; first compound 0.2 µM) | relative viability (Veliparib + Alpelisib; first compound 0.6325 µM) | relative viability (Veliparib + Alpelisib; first compound 2 µM) | relative viability (Veliparib + Phenformin; first compound 0.02 µM) | relative viability (Veliparib + Phenformin; first compound 0.06325 µM) | relative viability (Veliparib + Phenformin; first compound 0.2 µM) | relative viability (Veliparib + Phenformin; first compound 0.6325 µM) | relative viability (Veliparib + Phenformin; first compound 2 µM) |
| --- | --- | --- | --- | --- | --- | --- | --- | --- | --- | --- | --- | --- | --- | --- | --- | --- | --- | --- | --- | --- |
| LXF-289 | 0.577 | 0.574 | 0.554 | 0.601 | 0.649 | 0.194 | 0.193 | 0.233 | 0.208 | 0.216 | 1.02 | 1.02 | 0.997 | 1.01 | 1.06 | 0.521 | 0.52 | 0.533 | 0.499 | 0.539 |
| NCI-H23 | 0.546 | 0.428 | 0.445 | 0.486 | 0.516 | 0.38 | 0.429 | 0.434 | 0.381 | 0.426 | 0.662 | 0.623 | 0.749 | 0.564 | 0.713 | 0.851 | 0.73 | 0.762 | 0.756 | 0.833 |
| NCI-H322M | – | 0.491 | 0.48 | 0.514 | 0.49 | – | 0.425 | 0.416 | 0.499 | 0.422 | 0.763 | 0.719 | 0.78 | 0.7 | 0.772 | – | 0.641 | 0.814 | 0.724 | 0.747 |
| NCI-H358 | 0.117 | 0.136 | 0.153 | 0.137 | 0.119 | 0.121 | 0.107 | 0.106 | 0.106 | 0.102 | – | 0.763 | 0.953 | 0.775 | 1.01 | 0.226 | 0.316 | 0.337 | 0.32 | 0.351 |
| NCI-H441 | 0.203 | 0.222 | 0.266 | 0.213 | 0.218 | 0.633 | 0.608 | 0.529 | 0.541 | 0.683 | 0.735 | 0.886 | 0.716 | 0.737 | 0.671 | 0.915 | 0.986 | 0.855 | 0.72 | 0.876 |
| NCI-H460 | 0.147 | 0.092 | 0.11 | 0.121 | 0.131 | 0.512 | 0.438 | 0.334 | 0.478 | 0.308 | – | 0.342 | 0.539 | 0.347 | 0.441 | 0.361 | 0.491 | 0.484 | 0.489 | 0.52 |
| NCI-H520 | 0.24 | 0.239 | 0.254 | 0.212 | 0.223 | 0.337 | 0.488 | 0.439 | 0.47 | 0.503 | 0.882 | 1.06 | 0.859 | 0.791 | 1.03 | 0.709 | 0.558 | 0.761 | 0.538 | 0.578 |
| NCI-H647 | 0.392 | 0.325 | 0.425 | 0.423 | 0.469 | 0.28 | 0.346 | 0.263 | 0.357 | 0.254 | 1.38 | 1.07 | 1.42 | 1.22 | 1.11 | 0.438 | 0.405 | 0.563 | 0.505 | 0.597 |
| NCI-H650 | 0.309 | 0.278 | 0.344 | 0.33 | 0.331 | 0.809 | 0.683 | 0.773 | 0.686 | 0.799 | 1.28 | 0.983 | 1.23 | 0.999 | 1.2 | 0.439 | 0.385 | 0.405 | 0.408 | 0.412 |
| NCI-H661 | 0.382 | 0.41 | 0.4 | 0.371 | 0.384 | 0.349 | 0.363 | 0.336 | 0.329 | 0.388 | 0.361 | 0.581 | 0.653 | 0.701 | 0.699 | 0.299 | 0.289 | 0.25 | 0.274 | 0.264 |
| NCI-H727 | 0.7 | 0.689 | 0.624 | 0.661 | 0.605 | 0.672 | 0.648 | 0.573 | 0.495 | 0.654 | 0.512 | 0.572 | 0.598 | 0.538 | 0.488 | 0.481 | 0.443 | 0.549 | 0.483 | 0.521 |
| NCI-H838 | 0.22 | 0.191 | 0.235 | 0.225 | 0.224 | 0.344 | 0.28 | 0.285 | 0.256 | 0.25 | 0.971 | 0.843 | 1.08 | 0.935 | 1 | 0.576 | 0.495 | 0.564 | 0.424 | 0.628 |
| NCI-H1355 | 0.305 | 0.396 | 0.375 | 0.417 | 0.402 | – | 0.534 | 0.559 | 0.507 | 0.539 | – | 0.739 | 0.846 | 0.692 | 0.816 | – | 0.425 | 0.46 | 0.423 | 0.442 |
| NCI-H1395 | 0.606 | 0.58 | 0.614 | 0.565 | 0.554 | 0.684 | 0.787 | 0.754 | 0.656 | 0.706 | – | 1.37 | 0.873 | 1.09 | 0.74 | 0.355 | 0.421 | 0.437 | 0.393 | 0.408 |
| NCI-H1437 | 0.304 | 0.323 | 0.281 | 0.362 | 0.335 | 0.384 | 0.438 | 0.43 | 0.406 | 0.399 | 0.898 | 0.977 | 0.98 | 0.921 | 0.889 | 0.311 | 0.237 | 0.357 | 0.253 | 0.299 |
| NCI-H1651 | 0.513 | 0.497 | 0.52 | 0.499 | 0.485 | 0.864 | 0.654 | 0.646 | 0.604 | 0.545 | 0.889 | 0.83 | 0.922 | 0.828 | 0.856 | 0.286 | 0.34 | 0.379 | 0.279 | 0.316 |
| NCI-H1666 | 0.574 | 0.606 | 0.644 | 0.655 | 0.654 | 0.582 | 0.582 | 0.598 | 0.547 | 0.62 | 1.04 | 0.709 | 0.857 | 0.829 | 1 | 0.546 | 0.507 | 0.544 | 0.487 | 0.534 |
